{"source": "patent US10633386B2", "about": "“BET protein degraders” (THE REGENTS OF THE UNIVERSITY OF MICHIGAN, priority 2016, dated 2020)", "key": {"[1]": {"test_system": "MDA-MB-231", "test": "Cell growth inhibition (CellTiter-Glo), MDA-MB-231", "assay_type": "cell-based, human", "details": "MDA-MB-231 cells, 4 days", "protocol": "(§1) Cell growth inhibitory activity of representative BET bromodomain degraders was determined using CellTiter-Glo® Luminescent Cell Viability Assay. Cells were seeded in 384-well white opaque cell culture plates at a density of 2,000 cells/well with serially diluted compounds and incubated at 37° C. in an atmosphere of 95% air and 5% CO2 for 4 days. Cell viability was determined using the CellTiter-Glo® Luminescent Cell Viability Assay Kit (Promega, Madison, Wis.) according to the manufacture's instruction. Briefly, a volume of CellTiter-Glo® Reagent equal to the volume of cell culture medium was added to each well, and then the plates were incubated at room temperature for 10-20 minutes. The luminescent signal was measured using a Tecan Infinite M1000 multimode microplate reader (Tecan, Morrisville, N.C.). The half maximal inhibitory concentration (IC50) was calculated using the GraphPad Prism 5 software (GraphPad Software, La Jolla, Calif.)."}, "[2]": {"test_system": "MOLM-13", "test": "Cell growth inhibition (CellTiter-Glo), MOLM-13", "assay_type": "cell-based", "details": "MOLM-13 cells, 4 days", "protocol": "as §1"}}, "data": [{"smiles": "CCn1nc(C2CC2)cc1Nc1nc(C(=O)NCCCCCc2cccc3c2C(=O)N(C2CCC(=O)NC2=O)C3=O)nc2[nH]c3cc(-c4c(C)noc4C)c(OC)cc3c12", "note": "(stereo not shown) [Cpd. No. 60]", "values": [{"measurement": "IC50", "setting": "[1]; Homo sapiens, MDA-MB-231, 96 h", "value": 11.2, "unit": "nM"}, {"measurement": "IC50", "setting": "[2]; Homo sapiens, MOLM-13, 96 h", "value": 1.2, "unit": "nM"}]}, {"smiles": "CCn1nc(C2CC2)cc1Nc1nc(C(=O)NCCOCCOCCC(=O)Nc2cccc3c2CN(C2CCC(=O)NC2=O)C3=O)nc2[nH]c3cc(-c4c(C)noc4C)c(OC)cc3c12", "note": "(stereo not shown) [Cpd. No. 63]", "values": [{"measurement": "IC50", "setting": "[1]; Homo sapiens, MDA-MB-231, 96 h", "value": 231, "unit": "nM"}, {"measurement": "IC50", "setting": "[2]; Homo sapiens, MOLM-13, 96 h", "value": 41.5, "unit": "nM"}]}, {"smiles": "CCn1nc(C2CC2)cc1Nc1nc(C(=O)NCCCOCCOCCNc2cccc3c2CN(C2CCC(=O)NC2=O)C3=O)nc2[nH]c3cc(-c4c(C)noc4C)c(OC)cc3c12", "note": "(stereo not shown) [compound 69]", "values": [{"measurement": "IC50", "setting": "[1]; Homo sapiens, MDA-MB-231, 96 h", "value": 16.1, "unit": "nM"}, {"measurement": "IC50", "setting": "[2]; Homo sapiens, MOLM-13, 96 h", "value": 2.9, "unit": "nM"}]}, {"smiles": "CCn1nc(C2CC2)cc1Nc1nc(C(=O)NCCOCCOCCNc2cccc3c2CN(C2CCC(=O)NC2=O)C3=O)nc2[nH]c3cc(-c4c(C)noc4C)c(OC)cc3c12", "note": "(stereo not shown) [compound 23]", "values": [{"measurement": "IC50", "setting": "[1]; Homo sapiens, MDA-MB-231, 96 h", "value": 83.4, "unit": "nM"}, {"measurement": "IC50", "setting": "[2]; Homo sapiens, MOLM-13, 96 h", "value": 16.7, "unit": "nM"}]}, {"smiles": "CCn1nc(C2CC2)cc1Nc1nc(C(=O)NCCNc2cccc3c2C(=O)N(C2CCC(=O)NC2=O)C3=O)nc2[nH]c3cc(-c4c(C)noc4C)c(OC)cc3c12", "note": "(stereo not shown) [Cpd. No. 7]", "values": [{"measurement": "IC50", "setting": "[1]; Homo sapiens, MDA-MB-231, 96 h", "value": 453, "unit": "nM"}, {"measurement": "IC50", "setting": "[2]; Homo sapiens, MOLM-13, 96 h", "value": 65, "unit": "nM"}]}, {"smiles": "CCn1nc(C2CC2)cc1Nc1nc(CNCCCCNc2cccc3c2CN(C2CCC(=O)NC2=O)C3=O)nc2[nH]c3cc(-c4c(C)noc4C)c(OC)cc3c12", "note": "(stereo not shown) [compound 19]", "values": [{"measurement": "IC50", "setting": "[1]; Homo sapiens, MDA-MB-231, 96 h", "value": 1420, "unit": "nM"}, {"measurement": "IC50", "setting": "[2]; Homo sapiens, MOLM-13, 96 h", "value": 379, "unit": "nM"}]}, {"smiles": "CCn1nc(C2CC2)cc1Nc1nc(C(=O)NCCOCCCc2cccc3c2CN(C2CCC(=O)NC2=O)C3=O)nc2[nH]c3cc(-c4c(C)noc4C)c(OC)cc3c12", "note": "(stereo not shown) [Cpd. No. 59]", "values": [{"measurement": "IC50", "setting": "[1]; Homo sapiens, MDA-MB-231, 96 h", "value": 24.4, "unit": "nM"}, {"measurement": "IC50", "setting": "[2]; Homo sapiens, MOLM-13, 96 h", "value": 0.64, "unit": "nM"}]}, {"smiles": "CCn1nc(C2CC2)cc1Nc1nc(C(=O)NCCOCCOCCOCCOc2cccc3c2C(=O)N(C2CCC(=O)NC2=O)C3=O)nc2[nH]c3cc(-c4c(C)noc4C)c(OC)cc3c12", "note": "(stereo not shown) [Cpd. No. 5]", "values": [{"measurement": "IC50", "setting": "[1]; Homo sapiens, MDA-MB-231, 96 h", "value": 50, "unit": "nM"}, {"measurement": "IC50", "setting": "[2]; Homo sapiens, MOLM-13, 96 h", "value": 6.9, "unit": "nM"}]}, {"smiles": "CCn1nc(C2CC2)cc1Nc1nc(C(=O)NCCOCCOCCOCCCc2cccc3c2C(=O)N(C2CCC(=O)NC2=O)C3=O)nc2[nH]c3cc(-c4c(C)noc4C)c(OC)cc3c12", "note": "(stereo not shown) [Cpd. No. 61]", "values": [{"measurement": "IC50", "setting": "[1]; Homo sapiens, MDA-MB-231, 96 h", "value": 69.6, "unit": "nM"}, {"measurement": "IC50", "setting": "[2]; Homo sapiens, MOLM-13, 96 h", "value": 1.5, "unit": "nM"}]}, {"smiles": "CCn1nc(C2CC2)cc1Nc1nc(C(=O)NCCOCCOCCOCCOCCNc2cccc3c2CN(C2CCC(=O)NC2=O)C3=O)nc2[nH]c3cc(-c4c(C)noc4C)c(OC)cc3c12", "note": "(stereo not shown) [compound 25]", "values": [{"measurement": "IC50", "setting": "[1]; Homo sapiens, MDA-MB-231, 96 h", "value": 25.1, "unit": "nM"}, {"measurement": "IC50", "setting": "[2]; Homo sapiens, MOLM-13, 96 h", "value": 3.5, "unit": "nM"}]}, {"smiles": "CCn1nc(C2CC2)cc1Nc1nc(C(=O)NCCOCCOCCNc2cccc3c2C(=O)N(C2CCC(=O)NC2=O)C3=O)nc2[nH]c3cc(-c4c(C)noc4C)c(OC)cc3c12", "note": "(stereo not shown) [compound 65]", "values": [{"measurement": "IC50", "setting": "[1]", "value": 438, "unit": "nM"}, {"measurement": "IC50", "setting": "[2]", "value": 47.1, "unit": "nM"}]}, {"smiles": "CCn1nc(C2CC2)cc1Nc1nc(C(=O)NCCOCCNc2cccc3c2C(=O)N(C2CCC(=O)NC2=O)C3=O)nc2[nH]c3cc(-c4c(C)noc4C)c(OC)cc3c12", "note": "(stereo not shown) [Cpd. No. 12]", "values": [{"measurement": "IC50", "setting": "[1]; Homo sapiens, MDA-MB-231, 96 h", "value": 109, "unit": "nM"}, {"measurement": "IC50", "setting": "[2]; Homo sapiens, MOLM-13, 96 h", "value": 17.8, "unit": "nM"}]}, {"smiles": "CCn1nc(C2CC2)cc1Nc1nc(CNCCCOCCOCCOCCCNc2cccc3c2C(=O)N(C2CCC(=O)NC2=O)C3=O)nc2[nH]c3cc(-c4c(C)noc4C)c(OC)cc3c12", "note": "(stereo not shown) [compound 20]", "values": [{"measurement": "IC50", "setting": "[1]; Homo sapiens, MDA-MB-231, 96 h", "value": 3.2, "unit": "nM"}, {"measurement": "IC50", "setting": "[2]; Homo sapiens, MOLM-13, 96 h", "value": 0.9, "unit": "nM"}]}, {"smiles": "CCn1nc(C2CC2)cc1Nc1nc(CNCCCCNc2cccc3c2C(=O)N(C2CCC(=O)NC2=O)C3=O)nc2[nH]c3cc(-c4c(C)noc4C)c(OC)cc3c12", "note": "(stereo not shown) [compound 17]", "values": [{"measurement": "IC50", "setting": "[1]; Homo sapiens, MDA-MB-231, 96 h", "value": 330, "unit": "nM"}, {"measurement": "IC50", "setting": "[2]; Homo sapiens, MOLM-13, 96 h", "value": 115, "unit": "nM"}]}, {"smiles": "CCn1nc(C2CC2)cc1Nc1nc(CNCCCOCCCCOCCCNc2cccc3c2C(=O)N(C2CCC(=O)NC2=O)C3=O)nc2[nH]c3cc(-c4c(C)noc4C)c(OC)cc3c12", "note": "(stereo not shown) [compound 21]", "values": [{"measurement": "IC50", "setting": "[1]; Homo sapiens, MDA-MB-231, 96 h", "value": 543, "unit": "nM"}, {"measurement": "IC50", "setting": "[2]; Homo sapiens, MOLM-13, 96 h", "value": 84.6, "unit": "nM"}]}, {"smiles": "CCn1nc(C2CC2)cc1Nc1nc(C(=O)NCCOCCOCCOCCNc2cccc3c2C(=O)N(C2CCC(=O)NC2=O)C3=O)nc2[nH]c3cc(-c4c(C)noc4C)c(OC)cc3c12", "note": "(stereo not shown) [compound 14]", "values": [{"measurement": "IC50", "setting": "[1]; Homo sapiens, MDA-MB-231, 96 h", "value": 33, "unit": "nM"}, {"measurement": "IC50", "setting": "[2]; Homo sapiens, MOLM-13, 96 h", "value": 1.2, "unit": "nM"}]}, {"smiles": "CCn1nc(C2CC2)cc1Nc1nc(C(=O)NCCCNc2cccc3c2C(=O)N(C2CCC(=O)NC2=O)C3=O)nc2[nH]c3cc(-c4c(C)noc4C)c(OC)cc3c12", "note": "(stereo not shown) [Cpd. No. 8]", "values": [{"measurement": "IC50", "setting": "[1]; Homo sapiens, MDA-MB-231, 96 h", "value": 57.6, "unit": "nM"}, {"measurement": "IC50", "setting": "[2]; Homo sapiens, MOLM-13, 96 h", "value": 6.3, "unit": "nM"}]}]}
